Some results are limits rather than exact numbers.

With `CC(C)(C)OC(=O)Nc1ccc(C#Cc2ccc(F)cc2)cc1[N+](=O)[O-]`, the melting point – broadly, the temperature of the solid-liquid transition – lay in the range of 157 to 158 °C.
In turn, `O=C1CCCc2ccc(OCCCC(=O)N3CCOCC3)cc21` returned a melting point of 88 to 90 °C.
The molecule `CC(=O)C(=NNc1cccc(C(F)(F)F)c1)C(C)=O` returned a melting point of 108 to 109 °C.
The result for `COc1cc(Nc2nccc(NCc3ccccc3)n2)cc(OC)c1OC` reads 135 to 136 °C.
The result for `CC1=C(c2ccccc2)C(=O)N(C(C)(C)C(=O)Cc2cc(F)cc(F)c2)CO1` reads 76.5 to 77.5 °C; that for `Cn1cc(C2=C(c3c4n(c5ccccc35)CCC(C(N)=O)C4)C(=O)OC2=O)c2ccccc21` (stereo not drawn), 307 to 309 °C.
As for `CC(C)(C)[Si](C)(C)OC1CN(c2ccc(N3C[C@H](CN=[N+]=[N-])OC3=O)cc2F)C1`, the figure is 121 to 122 °C; as for `COc1ccc(C(=O)C=Cc2ccccc2F)c(OC)c1OC`, 75 to 75.8 °C; as for `COc1cc2cc(C3=NNC(=O)CC3C)sc2cc1OC` (stereo not drawn), 204 to 206 °C.
The molecule `CCCCSc1cc(C(=O)O)cc(S(N)(=O)=O)c1Sc1ccccc1` registered a melting point of 192 to 193 °C.
As for `O=C(Nc1ccc(-c2c[nH]c(=O)cn2)cc1)OCc1ccccc1`, the figure is 240 to 244 °C.
The molecule `COc1cc2ncc(OC3CC4CC3C(O)C4O)nc2cc1OC` (stereo not drawn) yielded a melting point of 85 to 88 °C.
The result for `NC(=O)C1CCc2cc(C(=O)c3ccccc3)c(O)cc21` (stereo not drawn) reads 205 to 207 °C; that for `CCOC(=O)c1ccc(OCC#Cc2ccccc2)c(OC)c1`, 62 to 65 °C; that for `O=C(Nc1ccc(F)c(NC(=S)Nc2cccc(C(F)(F)F)c2)c1)c1ccc(Cl)c(Cl)c1`, 172 to 174 °C.
As for `CC(C)c1nnc2c3ccc(Cl)cc3c(-c3ccccc3)nn12`, the figure is 214 to 216 °C; as for `CCOCCCCCCCCCCC(=O)O`, 44 to 45.5 °C; as for `CCC1(CC(=O)OC)OCCc2c1[nH]c1c(CCO)c(F)ccc21` (stereo not drawn), 101 to 103 °C.
As for `O=C1NCCc2c1c1cccc(F)c1n2COCc1ccccc1`, the figure is 130 to 132 °C; as for `CCCC1=NN(c2ccc(S(=O)(=O)NC(C)(C)C)cc2)C(=O)C1=CNc1ccccc1OCC`, 254 °C.
In turn, `Nc1cc(C(=O)O)cc(OCc2ccc(Cl)cc2)c1Cc1ccccc1` returned a melting point of 199 to 200 °C.
As for `CCOC(=O)c1cnn2c1c(Cl)nc1c(C)nn(C)c12`, the figure is 130 to 132 °C.
In the case of `O=C(O)CCC(=O)c1ccc(F)c([N+](=O)[O-])c1`, the melting point came out at 136 °C.
As to `O=C(NCc1cc(Br)cc2[nH]c(=O)c(=O)[nH]c12)C(O)c1ccccc1` (stereo not drawn), the melting point is > 280 °C.
Regarding `Nc1ccc(-c2noc(-c3cnn4c(C(F)(F)F)cc(-c5ccc(Cl)cc5)nc34)n2)cn1`, the melting point worked out at 253 °C.
On to `S=C(Cc1ccc(Cl)cc1)N1CCOCC1`, for which the melting point was 175 to 177 °C.
As for `CC(=O)Nc1ccc(N2CCC(O)CC2)cc1`, the figure is 191 °C; as for `C[C@@H]1C(=O)N(CC(=O)CCc2ccccc2)[C@H]1SCc1ccccc1` (relative stereo), 69 to 71 °C; as for `Cc1cc(-c2ccc(S(N)(=O)=O)cc2)n(-c2ccc(F)cc2)c1`, 126 to 127 °C.
As for `CN(C)C=NC(=O)C=Cc1ccccc1`, the figure is 91 to 93 °C.
`COc1ccc(-c2cnc3cc4cnn(CCO)c4cc3n2)cc1F` gave a melting point of 192 to 195 °C.
For the molecule `CCOC(=O)N1CCN(CCS(=O)c2ccccc2)CC1` (stereo not drawn), the melting point turned out to be 76 °C.
`CN(C)C(=O)Nc1cc(Cl)ccc1O` showed a melting point of 164 °C.
As for `CCCc1nccn1-c1nc(-c2ccc(Cl)cc2)c(CCC(=O)O)o1`, the figure is 174 to 175 °C; as for `CC(C)n1nc(-c2sc(NC(=O)c3ccccn3)nc2-c2ccccc2)ccc1=O`, 245 to 246 °C; as for `O=C(NCc1ccon1)c1ccnc(N2CCN(Cc3ccc(F)cc3)C2=O)c1`, 127 to 129 °C.
With `CC(C)(C)c1cc(CCc2ccccc2NC(=O)NCCc2ccccn2)cc(C(C)(C)C)c1O`, the melting point worked out at 180 °C.
For the molecule `COC1(C)OC(=O)c2c(O)cccc21` (stereo not drawn), the melting point lay in the range of 101 to 104 °C.
As for `COc1ccc(CCNC(=O)C(=O)Nc2cccnc2)cc1OC1CCCC1`, the figure is 167 °C.
In the case of `COc1ccc(COCc2cccc(C(=O)O)c2)cc1OC1CC2CCC1C2` (stereo not drawn), the melting point lay in the range of 77 to 79 °C.
The result for `COc1cnn(C2CCCCO2)c(=O)c1Cl` (stereo not drawn) reads 118 to 120 °C; that for `CC(Cn1nccn1)n1nnc2cc3c(=O)n(C(C)Cn4ncnn4)nnc3cc2c1=O` (stereo not drawn), 139 to 140 °C; that for `N=C(Nc1ccc(Cl)c(Cl)c1)Nc1ncccc1OCc1ccccc1`, 161 to 162 °C.
As for `CCOC(=O)C(NC(=O)c1ccc(OC)cc1)C(C)=O` (stereo not drawn), the figure is 67 to 69 °C; as for `N#Cc1cc([N+](=O)[O-])ccc1NC(=O)C(F)(OC(F)(F)C(F)(F)C(F)(F)F)C(F)(F)F` (stereo not drawn), 96 °C; as for `C[C@@H](NC(=O)c1c[nH]c2ncc(-c3nccc4ccccc34)nc12)C(=O)N1CC(C#N)C1`, 180 to 185 °C.
Consider `CC(C)(C)OC(=O)Nc1ccccc1NC(=O)c1ccc(C(=O)Nc2cccc(Nc3nc(-c4cccnc4)cs3)c2)cn1`, for which the melting point lay within 220 to 222 °C.
As for `O=C(Nc1ccccc1)N1C[C@@H](P(c2ccccc2)c2ccccc2)[C@H](P(c2ccccc2)c2ccccc2)C1`, the figure is 165 to 167 °C; as for `CN1CCN(c2nc3ccccc3nc2Cc2ccccc2)CC1`, 89 to 90 °C.
The result for `COc1ccc2nc3c(cc2c1)c(Cl)nn3C` reads 138 to 139 °C; that for `CCCCCCCCC1C=CC(/C=C(\C)c2ccc(C(=O)O)o2)=C2N=C3CCCCC3=C21` (stereo not drawn), 160 to 162 °C; that for `CC(C)(C)OC(=O)NC(=N)NC(=O)c1cccc(P(c2ccccc2)c2ccccc2)c1`, 79 to 82 °C.
`Cc1ccc(-c2nc(Oc3ccccc3)nc(-c3ccc(C)cc3C)n2)c(C)c1` yielded a melting point of 96 to 98 °C.
The result for `COCC1CCCN1S(=O)(=O)c1ccc2c(c1)C1(OCCCO1)C(=O)N2` (stereo not drawn) reads 127 to 128 °C; that for `CCCCC1OC(=O)c2cc(NC(N)=S)ccc21` (stereo not drawn), 183 to 185 °C.
The result for `Cc1cc2ccc(Cl)c(C)c2nc1-n1cncn1` reads 147 to 148 °C; that for `CC1CCN(C(=O)Oc2ccc(Oc3ccccc3)cc2F)CC1`, 43 to 46 °C; that for `Cc1cn(Nc2cccc(Cl)c2)c(=S)n1-c1ccc(Br)cc1`, 220 °C.
`CC1=C(C(=O)O)[C@H](c2cccc([N+](=O)[O-])c2)C(C(=O)OCOC(=O)C(C)(C)C)=C(C)N1` gave a melting point of 146 to 148 °C.
Regarding `CC(C)(C)SC1CN(C(N)=O)CC1NS(=O)(=O)c1ccc(Oc2ccccc2)cc1` (stereo not drawn), the melting point lay in the range of 132 to 133 °C.
As for `CC(C)N(C(=O)c1ccc(F)cc1)C1CCN(Cc2ccccc2)CC1`, the figure is 98 °C; as for `CC(C)CCSC1C(O)C(CO)OC1n1ccc(=O)[nH]c1=O` (stereo not drawn), 66 to 67 °C; as for `Cc1ccc(N2CCN(CCCCl)CC2)cc1`, 34 to 36 °C.
`C(=Cc1cccnc1)c1ccc(C2OCCO2)cc1` displayed a melting point of 117 to 119 °C.
Regarding `COC(=O)C(=O)c1ccc(OCCOc2ccc([N+](=O)[O-])cc2)cc1`, the melting point lay in the range of 122 to 123 °C.
As for `COCCc1sc2ncnc(N)c2c1-c1ccc(NC(=O)Nc2ccc(C)cc2)cc1`, the figure is 128 to 132 °C; as for `COC=C1CN(C(c2ccccc2)c2ccccc2)C1`, 56 to 58 °C; as for `Cn1c2nc3ccccc3nc2c2cccc(C=O)c21`, 220 °C.
The result for `Cn1cnc2nc(NC(=O)c3ccccc3)nn2c1=S` reads 273 to 276 °C; that for `CC(C)(C)[C@@H](NC(=O)c1cc(Cl)cc(Cl)c1)NC1C(=O)C(=O)C1Nc1cccnc1Cl` (stereo partly drawn), 233 to 234 °C; that for `FC(F)(F)c1ccc(-c2nc(Oc3csc(C(F)(F)F)c3)cc(Oc3csc(C(F)(F)F)c3)n2)cc1`, 93 to 95 °C.
Take `CCC(=O)Nc1cc(-c2c(-c3cccc(Cl)c3)nc3cccnn23)ccn1`: the melting point fell in the range of 192 to 193 °C.
The result for `COc1ccc(CC2c3c(cc(OC)c(OC)c3O)CCN2C)cc1` (stereo not drawn) reads 112 to 114 °C; that for `CN(CCO)S(=O)(=O)c1cc(NC(=O)c2cnn3c(C(F)F)cc(-c4ccc(C(F)(F)F)cc4)nc23)c(Cl)s1`, 231 °C; that for `S=C(N=c1ccn(-c2ccccc2)nc1)Nc1ccccc1`, 171 to 173 °C.
Molecule `O=C(O)CN1C(=O)C(=Cc2cc(Cl)ccc2O)SC1=S` showed a melting point of 243 to 247 °C.
Molecule `C[C@@H](N[C@@H](CC(=O)N1CCn2c(nnc2C(F)(F)F)C1)Cc1cc(F)c(F)cc1F)c1ccccc1` registered a melting point of 128 °C.
The result for `CCc1nn(CCO)c(CC)c1Oc1cc(C#N)cc(C#N)c1` reads 125 °C; that for `Nc1ncccc1-c1nc2cc(C(F)(F)F)cnc2n1-c1ccc(CNC(=O)c2cccc(F)c2)cc1`, 230 to 231 °C; that for `CC1=CC(c2cccc([N+](=O)[O-])c2)C2=C(CCCC2=O)N1` (stereo not drawn), 183 to 185 °C.
As for `COC(=O)N1C=C(C=O)CC([C@@H]2CCCN2C)=C1`, the melting point was 78 to 80 °C.
The result for `CC(C)(C)c1cc(-c2ccc([N+](=O)[O-])cc2)cc(C(C)(C)C)c1O` reads 157 to 160 °C; that for `COc1ccc2c(ccn2-c2cccc(C#N)c2)c1`, 113 to 115 °C; that for `COc1cc(Nc2c(C#N)cnc3cc4c(cc23)ncn4CCN2CCOCC2)c(C)cc1Cl`, 246 to 248 °C.
As for `COC(=O)c1cnc(S)n1C1CCCC2CCCCC21` (stereo not drawn), the figure is 84 to 86 °C.
As for `CN1C(=S)N(c2ccc(C#N)c(C(F)(F)F)c2)C(=O)C1(CO)CO`, the figure is 169 to 170 °C; as for `O=C(O)CC1CCCc2c1n(Cc1ccc(Cl)cc1)c1ccc(F)cc21` (single isomer, unassigned; (-)), 151 to 152 °C; as for `CC(C)(C)OC(=O)NCC(=O)N[C@@H](Cc1ccccc1)C(=O)O`, 138 to 141 °C.
